Test systems include CCRF-CEM leukemia; HL-60(TB) leukemia; HCT-15 colon; HOP-92 NSCLC; SNB-19 CNS; SK-MEL-2 melanoma; MALME-3M melanoma; CAKI-1 renal; UO-31 renal; SN12C renal.
Common to all, as to assay: DTP human tumour cell line panel, 48 h

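Values below derive from 48-hour exposures of cells grown in 96-well plates, with endpoints linearly interpolated between the two concentrations bracketing the appropriate inhibition level. At the TGI there is no net growth.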 Where only a bound is given, the exact number is not on record here.

The TGI is the concentration giving total growth inhibition.

For `Oc1ccc(Cl)cc1-c1cc(-c2ccccc2)nc(=S)[nH]1`, the TGI was over 100 µM in the assay on CCRF-CEM leukemia; over 100 µM in the assay on HL-60(TB) leukemia; over 100 µM in the assay with HCT-15 colon; 47.6 µM with HOP-92 NSCLC; over 100 µM in the assay on SNB-19 CNS; 78.2 µM in the assay with SK-MEL-2 melanoma. For the same compound, the TGI in the assay on MALME-3M melanoma is over 100 µM; in the assay on CAKI-1 renal, over 100 µM; in the assay on UO-31 renal, 68.9 µM; in the assay on SN12C renal, over 100 µM.

The record behind these values is PubChem BioAssay (NCI).
